The results in this text go back to patent US20230263822A1, “MODULATION OF FACTOR 11 EXPRESSION” (Ionis Pharmaceuticals, Inc., priority 2008, published 2023).

One data set has as its system human Factor 11 mRNA. The data set is described as follows: Dose-dependent antisense inhibition of human Factor 11 in HepG2 cells, lipofectin 9.375-150 nM (Example 2). In kind it is cell-based. The following applies: ~16 h.
On the set-up of data set [1]: species or system Sprague-Dawley rats. As to conditions: rat, in vivo, sc, 20 mg/kg. How it is done:
The concentration of the full-length oligonucleotide as well as the total oligonucleotide concentration (including the degraded form) was measured. The method used is a modification of previously published methods (Leeds et al., 1996; Geary et al., 1999) which consist of a phenol-chloroform (liquid-liquid) extraction followed by a solid phase extraction. An internal standard (ISIS 355868, a 27-mer 2′-O-methoxyethyl modified phosphorothioate oligonucleotide, […], designated herein as SEQ ID NO: 270) was added prior to extraction. […] The results are presented in Tables 91 and 92, expressed as μg/g liver or kidney tissue. Half-lives were then calculated using WinNonlin software ([…]).

A short description of data set [2]: Liver function, ALT, AST, bilirubin in cynomolgus monkeys (Example 46). In kind it is in vivo. As to conditions: plasma. The method, then:
Groups, each consisting of two male and two female monkeys, were injected subcutaneously with 25 mg/kg of ISIS 416850, ISIS 449709, ISIS 445522, ISIS 449710, ISIS 449707, ISIS 449711, ISIS 449708, 416858, and ISIS 445531. Antisense oligonucleotide was administered to the monkeys at 25 mg/kg three times per week for week 1 and 25 mg/kg twice per week for weeks 2 to 8. A control group, consisting of two male and two female monkeys was injected subcutaneously with PBS according to the same dosing regimen. Body weights were taken 14 days and 7 days before the start of treatment and were then measured weekly throughout the treatment period. Blood samples were collected 14 days and 5 days before the start of treatment and subsequently several times during the dosing regimen for PT and aPTT measurements, and measurement of various hematologic factors. On day 55, the monkeys were euthanized by exsanguination while under deep anesthesia, and organs harvested for further analysis.
Plasma concentrations of alanine transaminase (ALT) and aspartate transaminase (AST) were measured and the results are presented in Tables 152 and 153 expressed in IU/L. Plasma levels of bilirubin were also measured and results are presented in Table 154 expressed in mg/dL. As observed in Tables 152-154, there were no significant increases in any of the liver metabolic markers after antisense oligonucleotide treatment.

Data set [3] in a line: Tolerability in CD1 mice: hematology assays (Example 43). As to conditions: 50 mg/kg s.c. twice per week for 6 weeks, blood. In kind it is in vivo.

Strand notation (5' to 3'): a small letter for the sugar, then the base; units joined by * are phosphorothioate-linked, units joined directly phosphodiester-linked; [ ] holds rarer units or linkages, { } end groups; capitals alone tell only the bases. e = 2'-O-(2-methoxyethyl) (MOE); [5mC] = 5-methylcytosine; d = 2'-deoxy (DNA)

For “412206 (antisense e[5mC]*e[5mC]*eG*eT*eG*d[5mC]*dA*dT*d[5mC]*dT*dT*dT*d[5mC]*dT*dT*eG*eG*e[5mC]*eA*eT) [compound 412206]”, in the data set on human Factor 11 mRNA, the “percent inhibition of Factor 11 at 9.375 nM” value was 28%, the “percent inhibition of Factor 11 at 18.75 nM” value turned out to be 44%, the “percent inhibition of Factor 11 at 37.5 nM” value is reported as 68% and the “percent inhibition of Factor 11 at 75 nM” value is recorded as 80%. Also, in the data set with human Factor 11 mRNA, the “percent inhibition of Factor 11 at 150 nM” value was found to be 89% and the IC50 (as a rule, the concentration that gives 50% inhibition) stood at 22 nM.

On to “412223 (antisense ACAGTTTCTGGCAGGCCTCG; 5-10-5 MOE gapmer, further chemistry not given here) [compound 412223]”, for which, in the data set on human Factor 11 mRNA, the “percent inhibition of Factor 11 at 9.375 nM” value worked out at 33%, the “percent inhibition of Factor 11 at 18.75 nM” value was 48%, the “percent inhibition of Factor 11 at 37.5 nM” value is listed as 62% and the “percent inhibition of Factor 11 at 75 nM” value was determined as 76%. Further, in the data set on human Factor 11 mRNA, the “percent inhibition of Factor 11 at 150 nM” value is 81% and the midpoint of inhibition, the IC50, lay at 21 nM. In data set [1], the “Half-life of ISIS oligonucleotides in the liver and kidney” value (shortened to “Half-life of ISIS oligonucleotides”) was found to be 22 days.

Regarding “412224 (antisense GCATTGGTGCACAGTTTCTG; 5-10-5 MOE gapmer, further chemistry not given here) [compound 412224]”, in the data set on human Factor 11 mRNA, the “percent inhibition of Factor 11 at 9.375 nM” value was 24%, the “percent inhibition of Factor 11 at 18.75 nM” value is reported as 45%, the “percent inhibition of Factor 11 at 37.5 nM” value is listed as 57% and the “percent inhibition of Factor 11 at 75 nM” value is listed as 70%. Further, in the data set on human Factor 11 mRNA, the “percent inhibition of Factor 11 at 150 nM” value is recorded as 81% and half-maximal inhibition (IC50) was put at 28 nM. For the same substance, the “Half-life of ISIS oligonucleotides” value in data set [1] is given as 17 days.

In the case of “416856 (antisense GGCATTGGTGCACAGTTTCT; 5-10-5 gapmer, further chemistry not given here) [compound 416856]”, in data set [1], the “Half-life of ISIS oligonucleotides” value is reported as 19 days.

For the substance “ISIS 416858: MOE gapmer, nucleobases 1275 to 1318 of SEQ ID NO: 1 (Table 8) (antisense ACGGCATTGGTGCACAGTTT; MOE gapmer, wing and gap sizes not given here)”, the ALT in data set [2] (Day 31) was 46 IU/L; in data set [2] (Day 55), 58 IU/L; in data set [2] (Day −5), 66 IU/L; in data set [2] (Day −14), 43 IU/L. The AST in data set [2] (Day 31) is listed as 60 IU/L; in data set [2] (Day 55), 69 IU/L; in data set [2] (Day −5) it was 100 IU/L; in data set [2] (Day −14) it was 64 IU/L. For the same substance, the Bilirubin is 0.16 mg/dL in data set [2] (Day 31), 0.16 mg/dL in data set [2] (Day 55), 0.23 mg/dL in data set [2] (Day −5) and 0.25 mg/dL in data set [2] (Day −14).

For “ISIS 449707: 3-8-3, 4-8-4, 2-10-2, 3-10-3 or 4-10-4 MOE microwalk gapmer (Table 46) (antisense e[5mC]*eA*e[5mC]*eA*dG*dT*dT*dT*d[5mC]*dT*dG*dG*e[5mC]*eA*eG*eG)”, in data set [2] (Day 31), the ALT was 52 IU/L, the AST is on record as 50 IU/L and the Bilirubin was found to be 0.13 mg/dL. In data set [2] (Day 55), the ALT turned out to be 63 IU/L, the AST is given as 52 IU/L and the Bilirubin was 0.16 mg/dL. In data set [2] (Day −5), the ALT amounted to 56 IU/L, the AST was determined as 53 IU/L and the Bilirubin was determined as 0.19 mg/dL. In data set [2] (Day −14), the ALT was 54 IU/L, the AST is 64 IU/L and the Bilirubin turned out to be 0.27 mg/dL. In data set [3], this substance registered a Platelets of 1386 nL⁻¹, an RBC of 8.4 pL⁻¹, a WBC of 6 nL⁻¹ and a hematocrit of 45%. Also, in data set [3], the hemoglobin was 12.4 g/dL, the lymphocytes is 85%, the monocytes is 3% and the neutrophils was found to be 11%.

As to “ISIS 449708: 3-8-3, 4-8-4, 2-10-2, 3-10-3 or 4-10-4 MOE microwalk gapmer (Table 46) (antisense eA*e[5mC]*eA*dG*dT*dT*dT*d[5mC]*dT*dG*dG*e[5mC]*eA*eG)”, in data set [2] (Day 31), the ALT is 44 IU/L, the AST is listed as 56 IU/L and the Bilirubin is on record as 0.14 mg/dL. In data set [2] (Day 55), this substance gave an ALT of 46 IU/L, an AST of 50 IU/L and a Bilirubin of 0.14 mg/dL. Besides, in data set [2] (Day −5), the ALT was determined as 54 IU/L, the AST was found to be 53 IU/L and the Bilirubin was 0.21 mg/dL. In data set [2] (Day −14), this substance yielded an ALT of 48 IU/L, an AST of 74 IU/L and a Bilirubin of 0.27 mg/dL. In data set [3], this substance displayed a Platelets of 1395 nL⁻¹, an RBC of 9.2 pL⁻¹, a WBC of 7 nL⁻¹ and a hematocrit of 48%. In data set [3], this substance registered a hemoglobin of 13.2 g/dL, a lymphocytes of 77%, a monocytes of 5% and a neutrophils of 17%.

Take “ISIS 449709: 3-8-3, 4-8-4, 2-10-2, 3-10-3 or 4-10-4 MOE microwalk gapmer (Table 46) (antisense eG*e[5mC]*eA*e[5mC]*dA*dG*dT*dT*dT*d[5mC]*dT*dG*dG*d[5mC]*eA*eG*eG*e[5mC])”: in data set [2] (Day 31), the ALT was 65 IU/L, the AST amounted to 45 IU/L and the Bilirubin is listed as 0.15 mg/dL. In data set [2] (Day 55), this substance had an ALT of 102 IU/L, an AST of 71 IU/L and a Bilirubin of 0.18 mg/dL. In addition, in data set [2] (Day −5), the ALT worked out at 77 IU/L, the AST is 51 IU/L and the Bilirubin was 0.19 mg/dL. In data set [2] (Day −14), the ALT was 73 IU/L, the AST was determined as 62 IU/L and the Bilirubin was 0.24 mg/dL. In data set [3], this substance came in with a Platelets of 1447 nL⁻¹, an RBC of 9.2 pL⁻¹, a WBC of 5 nL⁻¹ and a hematocrit of 49%. In addition, in data set [3], the hemoglobin amounted to 13.2 g/dL, the lymphocytes came to 76%, the monocytes is recorded as 4% and the neutrophils was 19%.

In data set [2] (Day 31), “ISIS 449710: 3-8-3, 4-8-4, 2-10-2, 3-10-3 or 4-10-4 MOE microwalk gapmer (Table 46) (antisense e[5mC]*eA*e[5mC]*dA*dG*dT*dT*dT*d[5mC]*dT*dG*dG*d[5mC]*eA*eG*eG)” showed an ALT of 37 IU/L, an AST of 37 IU/L and a Bilirubin of 0.15 mg/dL. For the same substance, in data set [2] (Day 55), the ALT amounted to 45 IU/L, the AST is listed as 64 IU/L and the Bilirubin amounted to 0.22 mg/dL. In data set [2] (Day −5), the ALT came out at 42 IU/L, the AST was found to be 38 IU/L and the Bilirubin is recorded as 0.19 mg/dL. In data set [2] (Day −14), this substance registered an ALT of 37 IU/L, an AST of 52 IU/L and a Bilirubin of 0.24 mg/dL. In data set [3], this substance gave a Platelets of 1245 nL⁻¹, an RBC of 9.1 pL⁻¹, a WBC of 7 nL⁻¹ and a hematocrit of 48%. Besides, in data set [3], the hemoglobin came to 13.5 g/dL, the lymphocytes stood at 81%, the monocytes was found to be 3% and the neutrophils came to 15%.

In data set [2] (Day 31), “ISIS 449711: 3-8-3, 4-8-4, 2-10-2, 3-10-3 or 4-10-4 MOE microwalk gapmer (Table 46) (antisense eA*e[5mC]*dA*dG*dT*dT*dT*d[5mC]*dT*dG*dG*d[5mC]*eA*eG)” yielded an ALT of 48 IU/L, an AST of 47 IU/L and a Bilirubin of 0.13 mg/dL. Also, in data set [2] (Day 55), the ALT is 54 IU/L, the AST was 47 IU/L and the Bilirubin is 0.13 mg/dL. In addition, in data set [2] (Day −5), the ALT worked out at 137 IU/L, the AST is reported as 78 IU/L and the Bilirubin is recorded as 0.16 mg/dL. In data set [2] (Day −14), this substance returned an ALT of 49 IU/L, an AST of 58 IU/L and a Bilirubin of 0.23 mg/dL. In data set [3], this substance showed a Platelets of 1225 nL⁻¹, an RBC of 9.0 pL⁻¹, a WBC of 6 nL⁻¹ and a hematocrit of 48%. Moreover, in data set [3], the hemoglobin is 13.3 g/dL, the lymphocytes turned out to be 79%, the monocytes was 6% and the neutrophils was found to be 15%.
